Assay [1] deals with T1, CCR4 (Homo sapiens, UniProt P51679).
T1 construct: CEM Cells Endogenous Express CCR4; endogenous in cells; host or cells: CEM cells
T1 sequence (P51679 1-360): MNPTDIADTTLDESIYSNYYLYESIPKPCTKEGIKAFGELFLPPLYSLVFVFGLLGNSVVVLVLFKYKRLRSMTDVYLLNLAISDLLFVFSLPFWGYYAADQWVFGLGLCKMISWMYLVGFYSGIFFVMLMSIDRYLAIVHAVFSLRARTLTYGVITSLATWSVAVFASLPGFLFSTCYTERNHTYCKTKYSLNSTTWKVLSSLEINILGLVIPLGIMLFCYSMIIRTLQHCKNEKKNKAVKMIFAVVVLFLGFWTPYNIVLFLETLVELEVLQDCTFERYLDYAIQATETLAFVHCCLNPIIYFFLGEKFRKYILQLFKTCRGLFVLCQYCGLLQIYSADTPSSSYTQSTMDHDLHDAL
Briefly: CEM cell chemotaxis (migration) assay to CCL22 (MDC) in 100% Fetal Bovine Serum (FBS). The format is cell-based. Particulars: CEM cells in 100% FBS with 1% HEPEs; recombinant human CCL22 0.1 nM; 37° C. 60 minutes. In short, it runs like this:
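Endogenously CCR4-expressing CEM cells in 100% FBS with 1% HEPES were preincubated with serially diluted compound (top final 10 μM) and allowed to migrate through 5 μm polycarbonate membranes toward 0.1 nM human CCL22 (EC50) for 60 min at 37 °C. Migrated cells were quantified by CyQUANT fluorescence.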

For assay [2], the target named is T1, CCR4. Description: CEM cell chemotaxis (migration) assay to CCL22 (MDC) in HBSS buffer with 0.1% BSA. The following applies: CEM cells in HBSS with 0.1% BSA; recombinant human CCL22 0.1 nM; 37° C. 60 minutes. The format is cell-based. The source says:
CEM Cells Endogenous Express CCR4
A chemotaxis assay can be used to determine the efficacy of potential receptor antagonists at blocking the migration mediated through chemokine receptors, such as CCR4. This assay is routinely performed using the ChemoTX® microchamber system with a 5 μm pore-sized polycarbonate membrane.
HBSS: CEM Cells are collected by centrifugation at 400×g at room temperature, then suspended at 5 million/ml in Hanks' Balanced Salt Solution (HBSS) buffer with 0.1% BSA. The compound being tested is serially diluted from a maximum final concentration of 10 μM (or an equivalent volume of its solvent (DMSO)) and is then added to the cell/buffer mixture. Separately, recombinant human CCL22 (MDC) at its EC50 concentration (0.1 nM) is placed in the lower wells of the ChemoTX® plate. The 5-μm (pore size) polycarbonate membrane was placed onto the plate, and 20 μL of the cell/compound mixture is transferred onto each well of the membrane. The plates are incubated at 37° C. for 60 minutes, after which the polycarbonate membranes are removed and 5 μl of the DNA-intercalating dye CyQUANT (Invitrogen, Carlsbad, CA) is added to the lower wells. The amount of fluorescence, corresponding to the number of migrated cells, is measured using a Spectrafluor Plus plate reader (TECAN, San Jose, CA).

As a reminder, the IC50 is the concentration that gives 50% inhibition.

Bounds are passed on as bounds.

Turning to `C[C@@H](Nc1nc(N2CCC(NC(=O)[C@H]3CCCN3)CC2)ncc1Cl)c1ccc(Cl)cc1Cl` [Example 1.039], the half-inhibitory concentration (IC50) in assay [1] and in assay [2] was under 100 nM throughout.

Regarding `C[C@@H](Nc1nc(C2=CCN([C@H]3CCCN(CCO)C3)CC2)ncc1Cl)c1ccc(Cl)cc1Cl` [Example 1.058], the 50% inhibitory concentration (IC50) in assay [1] and in assay [2] was under 100 nM each time.

In the case of `CC(Nc1nc(N2CCC(C(=O)N(C)C3CCNC3)CC2)ncc1Cl)c1ccc(Cl)cc1Cl` (stereo not drawn) [Example 1.065], the IC50 in assay [1] and in assay [2] was under 100 nM in each case.

As for `C[C@@H]1CN(c2ncc(Cl)c(N[C@H](C)c3ccc(Cl)cc3Cl)n2)CCN1C(=O)c1c[nH]c(=O)n(C)c1=O` [Example 1.018], the concentration for half-maximal inhibition (IC50) in assay [1] and in assay [2] was over 1000 nM in each case.

`C[C@@H](Nc1nc(N2CCN(C3CCCN(CCC(=O)O)C3)CC2)ncc1Cl)c1ccc(Cl)cc1Cl` (stereo partly drawn) [Example 1.054]: the IC50 in assay [1] and in assay [2] was under 100 nM throughout.

On to `C[C@@H](Nc1nc(N2CC[C@@H](NC(=O)[C@H]3CCCN3)C2)ncc1Cl)c1ccc(Cl)cc1Cl` [Example 1.015], for which the IC50 in assay [1] and in assay [2] was under 100 nM each time.

Consider `C[C@@H](Nc1nc(N2CCN(C(=O)[C@H]3CCCN3)[C@H](C(=O)O)C2)ncc1Cl)c1ccc(Cl)cc1Cl` [Example 1.151], for which the half-maximal inhibitory concentration (IC50) in assay [1] and in assay [2] was under 100 nM throughout.

For `C[C@@H](Nc1nc(N2CCN(C(=O)N(C)CCN(C)C)CC2)ncc1Cl)c1ccc(Cl)cc1Cl` [Example 1.072], the IC50 in assay [1] and in assay [2] was under 100 nM throughout.

For the compound `C[C@@H](Nc1nc(N2CCN(C(=O)N(C)C3CCNC3)CC2)ncc1Cl)c1ccc(Cl)cc1Cl` (stereo partly drawn) [Example 1.059], the half-maximal inhibitory concentration (IC50) in assay [1] and in assay [2] was under 100 nM in each case.

On to `C[C@@H](Nc1nc(N2CCN(C(=O)CCN(C)C)CC2)ncc1Cl)c1ccc(Cl)cc1Cl` [Example 1.010], for which the concentration for half-maximal inhibition (IC50) in assay [1] and in assay [2] was under 100 nM in each case.

In the case of `C[C@@H](Nc1nc(N2CCC(C(=O)NCCN(C)C)CC2)ncc1Cl)c1ccc(Cl)cc1Cl` [Example 1.026], the half-maximal inhibitory concentration (IC50) in assay [1] and in assay [2] was under 100 nM throughout.

In the case of `C[C@@H](Nc1nc(N2CCN(C(=O)[C@H]3CCCCN3)CC2)ncc1Cl)c1ccc(Cl)cc1Cl` [Example 1.044], the half-maximal inhibitory concentration (IC50) in assay [1] and in assay [2] was under 100 nM in each case.

For the compound `Cc1nc(N2CCN(C(=O)[C@H]3CCCN3)[C@H](CO)C2)nc(N[C@H](C)c2ccc(Cl)cc2Cl)c1Cl` [Example 1.043], the concentration for half-maximal inhibition (IC50) in assay [1] and in assay [2] was under 100 nM in each case.

Consider `C[C@@H](Nc1nc(N2CCC(N(CCO)C(=O)[C@H]3CCCN3)CC2)ncc1Cl)c1ccc(Cl)cc1Cl` [Example 1.064], for which the IC50 in assay [1] and in assay [2] was under 100 nM each time.

`C[C@@H](Nc1nc(N2CC[C@@H](NC(=O)[C@H]3CCCN3)[C@H](O)C2)ncc1Cl)c1ccc(Cl)cc1Cl` [Example 1.013]: the IC50 in assay [1] and in assay [2] was under 100 nM in each case.

Take `C[C@@H](Nc1nc(N2CC[C@H](NC(=O)[C@@H]3CCC(=O)N3)[C@@H](O)C2)ncc1Cl)c1ccc(Cl)cc1Cl` [Example 1.254]: the IC50 was under 100 nM in assay [1] and over 1000 nM in assay [2].

As for `Cc1nc(N2CCN(C(=O)[C@H]3CCC(=O)N3)CC2)nc(N[C@H](C)c2cc(F)c(Cl)cc2Cl)c1Cl` [Example 1.258], the IC50 in assay [1] and in assay [2] was under 100 nM each time.

As to `C[C@@H]1CN(C(=O)[C@H]2CCCN2)CCN1c1ncc(Cl)c(N[C@H](C)c2ccc(Cl)cc2Cl)n1` [Example 1.038], the 50% inhibitory concentration (IC50) in assay [1] and in assay [2] was under 100 nM throughout.

With `C[C@@H](Nc1nc(N2CCN(C(=O)[C@H]3CCC(=O)N3)CC2)ncc1Cl)c1cccc(Cl)c1` [Example 1.075], the concentration for half-maximal inhibition (IC50) in assay [1] was 100 to 1000 nM; in assay [2], over 1000 nM.

On to `C[C@@H](Nc1nc(N2CCN(C(=O)[C@H]3CCCN3)[C@@H](C)C2)ncc1Cl)c1ccc(Cl)cc1Cl` [Example 1.011], for which the IC50 in assay [1] and in assay [2] was under 100 nM in each case.

On to `C[C@@H](Nc1nc(N2CCN(C(=O)[C@H]3CCCN3C3CC(C)(C(=O)O)C3)CC2)ncc1Cl)c1ccc(Cl)cc1Cl` (stereo partly drawn) [Example 1.152], for which the 50% inhibitory concentration (IC50) in assay [1] is over 1000 nM; in assay [2], 100 to 1000 nM.

`C[C@@H](Nc1nc(N2CCN(C(=O)[C@H]3COCCN3)CC2)ncc1Cl)c1ccc(Cl)cc1Cl` [Example 1.135]: the IC50 in assay [1] and in assay [2] was under 100 nM throughout.

Turning to `C[C@H](Nc1nc(N2CCN(C(=O)[C@H]3CCC(=O)N3)CC2)ncc1Cl)c1cc(F)c(Cl)cc1Cl` [Example 1.110], the concentration for half-maximal inhibition (IC50) in assay [1] and in assay [2] was over 1000 nM in each case.

Take `C[C@@H](Nc1nc(N2CCN(C(=O)[C@H]3CCC(=O)N3)C[C@@H]2C)ncc1Cl)c1ccc(Cl)cc1Cl` [Example 1.081]: the half-inhibitory concentration (IC50) in assay [1] and in assay [2] was under 100 nM each time.

Regarding `C[C@@H]1CN(c2ncc(Cl)c(N[C@H](C)c3ccc(Cl)cc3Cl)n2)[C@@H](C)CN1C1CCCN(CCC(=O)O)C1` (stereo partly drawn) [Example 1.017], the concentration for half-maximal inhibition (IC50) in assay [1] and in assay [2] was under 100 nM throughout.

Turning to `C[C@@H](Nc1nc(N2CC[C@H](NC(=O)[C@H]3CCCN3)[C@@H](O)C2)ncc1Cl)c1ccc(Cl)cc1Cl` [Example 1.012], the 50% inhibitory concentration (IC50) in assay [1] and in assay [2] was under 100 nM throughout.

As for `C[C@@H](Nc1nc(N2CCN(C(=O)[C@H]3CCN(C(N)=O)C3)CC2)ncc1Cl)c1ccc(Cl)cc1Cl` [Example 1.134], the IC50 in assay [1] and in assay [2] was under 100 nM throughout.

As to `C[C@@H](Nc1nc(N2CCC(N3CC(=O)NC3=O)CC2)ncc1Cl)c1ccc(Cl)cc1Cl` [Example 1.132], the IC50 in assay [1] and in assay [2] was over 1000 nM in each case.

On to `C[C@@H](Nc1nc(N2CCN(C(=O)C[C@H]3CCCN3)CC2)ncc1Cl)c1ccc(Cl)cc1Cl` [Example 1.032], for which the half-inhibitory concentration (IC50) in assay [1] and in assay [2] was under 100 nM each time.

As for `C[C@@H](Nc1nc(N2CCN(C(=O)[C@H]3CCCN3CCC(=O)O)CC2)ncc1Cl)c1ccc(Cl)cc1Cl` [Example 1.048], the IC50 in assay [1] and in assay [2] was under 100 nM in each case.

Consider `C[C@@H](Nc1nc(N2CCC(C3CNC3)CC2)ncc1Cl)c1ccc(Cl)cc1Cl` [Example 1.021], for which the IC50 in assay [1] and in assay [2] was under 100 nM throughout.

For the compound `C[C@@H]1CN(c2ncc(Cl)c(N[C@H](C)c3ccc(Cl)cc3Cl)n2)[C@@H](C)CN1C(=O)[C@H]1CCCN1CC(=O)O` [Example 1.019], the concentration for half-maximal inhibition (IC50) in assay [1] and in assay [2] was 100 to 1000 nM in each case.

Consider `C[C@@H](Nc1nc(N2CCN(C(=O)[C@H]3CCCN3)CC2)nc(N)c1Cl)c1ccc(Cl)cc1Cl` [Example 1.080], for which the IC50 in assay [1] and in assay [2] was under 100 nM each time.

With `C[C@@H](Nc1nc(N2CCN(C(=O)[C@@H]3CCCN3)CC2)ncc1Cl)c1ccc(Cl)cc1Cl` [Example 1.052], the concentration for half-maximal inhibition (IC50) in assay [1] and in assay [2] was under 100 nM in each case.

For the compound `C[C@@H](Nc1nc(N2CCN(C(=O)[C@@H]3CCCN3C(=O)OC(C)(C)C)CC2)ncc1Cl)c1ccc(Cl)cc1Cl` [Example 1.050], the results for the IC50 in assay [1] and in assay [2] were over 1000 nM and 100 to 1000 nM, respectively.

For `C[C@@H](Nc1ncc(C(F)(F)F)c(N2CCN(C(=O)[C@H]3CCCN3)CC2)n1)c1ccc(Cl)cc1Cl` [Example 1.006], the IC50 in assay [1] and in assay [2] was under 100 nM each time.
